Values quoted from earlier work as cited in PubChem BioAssay AID1259409 (Chemical Carcinogenesis Research Information System (CCRIS), 2018).

System: rodent chemically induced tumor inhibition, incidence and multiplicity
Experiment: CCRIS tumor inhibitor studies
Conditions: Carcinogen: 2,2'-DIHYDROXY-DI-N-PROPYLNITROSAMINE, 53609-64-6, 13147-25-6, Carcinogen: 2,2'-DIHYDROXY-DI-N-PROPYLNITROSAMINE, 53609-64-6, 13147-25-6, Dose [Inhibitor]: 0, Route [Inhibitor]: ORAL, Species: RAT, Strain/Sex: F344/MALE, Promoter: NONE USED

O=C(OC[C@@H]1O[C@H](OC(=O)c2cc(O)c(O)c(OC(=O)c3cc(O)c(O)c(O)c3)c2)[C@@H](OC(=O)c2cc(O)c(O)c(OC(=O)c3cc(O)c(O)c(O)c3)c2)[C@H](OC(=O)c2cc(O)c(O)c(OC(=O)c3cc(O)c(O)c(O)c3)c2)[C@H]1OC(=O)c1cc(O)c(O)c(OC(=O)c2cc(O)c(O)c(O)c2)c1)c1cc(O)c(O)c(OC(=O)c2cc(O)c(O)c(O)c2)c1
tumour outcome (control, treated, inhibition, significance) (N-ETHYL-N-HYDROXYETHYL- NITROSAMINE, 3,2'-DIMETHYL-4-, N-ETHYL-N-HYDROXYETHYL- NITROSAMINE, 3,2'-DIMETHYL-4-, 1% IN DIET BEGINNING 1 WK POST LAST CARCINOGEN DOSE AND CONTINUING FOR 32 WK (STUDY DURATION: 36 WK), Target Tissue: Type of Lesion: LARGE INTESTINE: ADENOMA, Dose [Carcinogen]: 1000 MG/KG IP DHPN 2X, 1500 MG/KG GAV EHEN 2X AND 75 MG/KG SC DMAB GIVEN OVER THE INITIAL 3 WK PERIOD AT 3-4 D INTERVALS): 7/14 (50%), 2/12 (17%), 66%, not calculated
tumour outcome (control, treated, inhibition, significance) (N-ETHYL-N-HYDROXYETHYL- NITROSAMINE, 3,2'-DIMETHYL-4-, N-ETHYL-N-HYDROXYETHYL- NITROSAMINE, 3,2'-DIMETHYL-4-, 1% IN DIET BEGINNING 1 WK POST LAST CARCINOGEN DOSE AND CONTINUING FOR 32 WK (STUDY DURATION: 36 WK), Target Tissue: Type of Lesion: LARGE INTESTINE: CARCINOMA, Dose [Carcinogen]: 1000 MG/KG IP DHPN 2X, 1500 MG/KG GAV EHEN 2X AND 75 MG/KG SC DMAB 3X GIVEN OVER THE INITIAL 3 WK AT 3-4 D INTERVALS): 3/14 (21%), 1/12 (8%), 62%, not calculated
tumour outcome (control, treated, inhibition, significance) (N-ETHYL-N-HYDROXYETHYL- NITROSAMINE, 3,2'-DIMETHYL-4-, N-ETHYL-N-HYDROXYETHYL- NITROSAMINE, 3,2'-DIMETHYL-4-, 1% IN DIET BEGINNING 1 WK POST LAST CARCINOGEN DOSE AND CONTINUING FOR 32 WK (STUDY DURATION: 36 WK), Target Tissue: Type of Lesion: LUNG: ADENOMA, Dose [Carcinogen]: 1000 MG/KG IP DHPN 2X, 1500 MG/KG GAV EHEN 2X AND 75 MG/KG SC DMAB 3X GIVEN OVER THE INITIAL 3 WK AT 3-4 D INTERVALS): 7/14 (50%), 7/12 (58%), -16%, not calculated
tumour outcome (control, treated, inhibition, significance) (N-ETHYL-N-HYDROXYETHYL- NITROSAMINE, 3,2'-DIMETHYL-4-, N-ETHYL-N-HYDROXYETHYL- NITROSAMINE, 3,2'-DIMETHYL-4-, 1% IN DIET BEGINNING 1 WK POST LAST CARCINOGEN DOSE AND CONTINUING FOR 32 WK (STUDY DURATION: 36 WK), Target Tissue: Type of Lesion: LUNG: CARCINOMA, Dose [Carcinogen]: 1000 MG/KG IP DHPN 2X, 1500 MG/KG GAV EHEN 2X AND 75 MG/KG SC DMAB 3X GIVEN OVER THE INITIAL 3 WK PERIOD AT 3-4 D INTERV): 1/14 (7%), 2/12 (17%), -143%, not calculated
tumour outcome (control, treated, inhibition, significance) (N-ETHYL-N-HYDROXYETHYL- NITROSAMINE, 3,2'-DIMETHYL-4-, N-ETHYL-N-HYDROXYETHYL- NITROSAMINE, 3,2'-DIMETHYL-4-, 1% IN DIET BEGINNING 1 WK POST LAST CARCINOGEN DOSE AND CONTINUING FOR 32 WK (STUDY DURATION: 36 WK), Target Tissue: Type of Lesion: URINARY BLADDER: CARCINOMA, Dose [Carcinogen]: 1000 MG/KG IP DHPN 2X, 1500 MG/KG GAV EHEN 2X AND 75 MG/KG SC DMAB 3X GIVEN OVER THE INITIAL 3 WK PERIOD AT 3-4 D INTERV): 1/14 (7%), 2/12 (17%), -143%, not calculated
outcome (N-ETHYL-N-HYDROXYETHYL- NITROSAMINE, 3,2'-DIMETHYL-4-, N-ETHYL-N-HYDROXYETHYL- NITROSAMINE, 3,2'-DIMETHYL-4-, 1% IN DIET BEGINNING 1 WK POST LAST CARCINOGEN DOSE AND CONTINUING FOR 32 WK (STUDY DURATION: 36 WK), Target Tissue: Type of Lesion: URINARY BLADDER: PAPILLOMA, Dose [Carcinogen]: 1000 MG/KG IP DHPN 2X, 1500 MG/KG GAV EHEN 2X AND 75 MG/KG SC DMAB 3X GIVEN OVER THE INITIAL 3 WK PERIOD AT 3-4 D INTERV): 0/14 (0%), 3/12 (25%), -100%, not calculated
tumour outcome (control, treated, inhibition, significance) (N-ETHYL-N-HYDROXYETHYL- NITROSAMINE, 3,2-DIMETHYL-4-A, N-ETHYL-N-HYDROXYETHYL- NITROSAMINE, 3,2-DIMETHYL-4-A, 1% IN DIET BEGINNING 1 WK POST LAST CARCINOGEN DOSE AND CONTINUING FOR 32 WK (STUDY DURATION: 36 WK), Target Tissue: Type of Lesion: LIVER: HEPATOCELLULAR CARCINOMA, Dose [Carcinogen]: 100 MG/KG IP DHPN 2X, 1500 MG/KG GAV EHEN 2X AND 75 MG/KG SC DMAB 3X GIVEN OVER THE INITIAL 3 WK PERIOD AT 3-4 D INTERVA): 6/14 (43%), 3/12 (25%), 42%, not calculated
tumour outcome (control, treated, inhibition, significance) (N-ETHYL-N-HYDROXYETHYLNITROSAMINE, 3,2'-DIMETHYL-1,4-, N-ETHYL-N-HYDROXYETHYLNITROSAMINE, 3,2'-DIMETHYL-1,4-, 1% IN DIET FOR 4 WK BEGINNING 1 D PRIOR TO FIRST CARCINOGEN DOSE (STUDY DURATION: 36 WK), Target Tissue: Type of Lesion: KIDNEY: ADENOMA, Dose [Carcinogen]: 1000 MG/KG BW DHPN TWICE, 1500 MG/KG THEN TWICE, 75 MG/KG BW DMAB 3 TIMES, SEQUENTIALLY OVER 3 WK): 6/10 (60%), 6/12 (50%), 17%, not significant
tumour outcome (control, treated, inhibition, significance) (N-ETHYL-N-HYDROXYETHYLNITROSAMINE, 3,2'-DIMETHYL-1,4-, N-ETHYL-N-HYDROXYETHYLNITROSAMINE, 3,2'-DIMETHYL-1,4-, 1% IN DIET FOR 4 WK BEGINNING 1 D PRIOR TO FIRST CARCINOGEN DOSE (STUDY DURATION: 36 WK), Target Tissue: Type of Lesion: LUNG: ADENOMA, Dose [Carcinogen]: 1000 MG/KG BW DHPN TWICE, 1500 MG/KG THEN TWICE, 75 MG/KG BW DMAB 3 TIMES, SEQUENTIALLY OVER 3 WK): 5/10 (50%), 7/12 (58%), -16%, not significant
tumour outcome (control, treated, inhibition, significance) (N-ETHYL-N-HYDROXYETHYLNITROSAMINE, 3,2'-DIMETHYL-4-AMINO-, N-ETHYL-N-HYDROXYETHYLNITROSAMINE, 3,2'-DIMETHYL-4-AMINO-, 1% IN DIET FOR 32 WK BEGINNING 1 WK POST CARCINOGEN TREATMENT (STUDY DURATION: 36 WK), Target Tissue: Type of Lesion: KIDNEY: NEPHROBLASTOMA, Dose [Carcinogen]: 1000 MG/KG BW DHPN TWICE, 1500 MG/KG BW THEN TWICE, 75 MG/KG BW DMAB 3 TIMES ADMINISTERED OVER FIRST 3 WK): 2/14 (14%), 0/12 (0%), 100%, not significant
